Experiments:
[1] = parameters: method as in PMID 28730290; conditions: mass balance study, major circulating metabolite; cited from earlier work
[2] = Part B: PK of single-dose fruquintinib alone and with rifampin (CYP3A induction); assay type: in vivo, human; conditions: for MPR AUC0‐inf (metabolite‐to‐parent ratio) / MPR AUC0‐t (metabolite‐to‐parent ratio) / MPR Cmax (metabolite‐to‐parent ratio): M11 to fruquintinib; for MPR AUC0‐inf (metabolite‐to‐parent ratio) / MPR AUC0‐t (metabolite‐to‐parent ratio) / MPR Cmax (metabolite‐to‐parent ratio) / Cmax / half-life / AUC / Tmax: Part B; for MPR AUC0‐inf (metabolite‐to‐parent ratio) / MPR AUC0‐t (metabolite‐to‐parent ratio) / MPR Cmax (metabolite‐to‐parent ratio) / Cmax / half-life / AUC: arithmetic mean (SD); for Cmax / half-life / AUC / Tmax: metabolite M11 in plasma; for Cmax: read-out: Cmax; for Tmax: median (minimum‐maximum)
Excerpt: (§1) This was a single‐center, open‐label, 2‐part (Part A and Part B), 2‐period, fixed‐sequence study conducted in healthy male and female subjects. Parts A and B evaluated the effect of the CYP3A inhibitor itraconazole and the CYP3A inducer rifampin on the PK profile of fruquintinib, respectively. Each part consisted of a screening phase, a treatment phase (Period 1 and Period 2), and an end‐of‐study (EOS) phase. Screening occurred within 21 days before the first study drug administration. There was at least a 14‐day washout of fruquintinib between treatment periods. PK samples were collected before dosing and over 168 hours following the fruquintinib dose in Part A (with itraconazole) and Part B (with rifampin). Part A and Part B were enrolled independently.
In Part B, subjects were administered fruquintinib alone in Treatment Period 1 and in combination with rifampin in Treatment Period 2. Study Day 1 was considered as the start of Treatment Period 1, and Study Day 8 was considered as the start of Treatment Period 2. On Study Day 1, a single dose of fruquintinib 5 mg by mouth was administered under fasted conditions, and on Study Day 15, a single dose of fruquintinib 5 mg was administered by mouth under fasted conditions alongside rifampin. Starting on Study Day 8, rifampin 600 mg was dosed by mouth once daily for 14 consecutive days, 7 days before fruquintinib dosing and 6 days after fruquintinib dosing, to ensure that induction was maintained throughout the PK sampling period. Subjects therefore received rifampin from Study Day 8 to Study Day 21. Absorption of rifampin is reduced by approximately 30% when the drug is ingested with food.[13] Therefore, rifampin was administered at least 1 hour before breakfast when given alone and under fasted conditions when administered with fruquintinib. Breakfast was given at least 1 hour after the rifampin doses on Study Days 8‐14 and Study Days 16‐21. On Study Day 15, subjects received both treatments under fasted conditions, and rifampin was administered 1hour before administration of a single dose of fruquintinib 5 mg by mouth. Subjects were discharged after completion of EOS procedures on Study Day 22 or at early withdrawal.
(§2) Blood samples for determination of fruquintinib and metabolite M11 plasma concentrations were collected before dosing and at 0.5, 1, 1.5, 2, 3, 4, 6, 8, 12, 24, 36, 48, 72, 96, 120, 144, and 168 hours after fruquintinib dosing. Plasma samples were analyzed by LabCorp Bioanalytical (Indianapolis, IN) using a validated liquid chromatography with tandem mass spectrometry assay method with an analytical range of 1.00 ng/mL (lower limit of quantitation) to 750 ng/mL (upper limit of quantitation) for both fruquintinib and M11.[6] Interrun variability was 6.3% or less and 13.8% or less for fruquintinib and M11, respectively. Quality control samples at 4 concentrations (3, 30, 300, and 600 ng/mL) were assayed along with study samples, and the bias quality control sample concentrations deviated by ±2.0% and ±2.7% from the nominal concentrations for fruquintinib and M11, respectively.
PK parameters were determined by noncompartmental analysis and included maximum plasma concentration (Cmax); time to reach Cmax (tmax); area under the plasma concentration‐time curve (AUC) from time 0 to the time of the last measurable concentration (AUC0‐t); AUC from time 0 to infinity (AUC0‐inf); half‐life (t1/2); and the metabolite‐to‐parent ratios for Cmax, AUC0‐t, and AUC0‐inf. Apparent oral clearance and volume of distribution were also estimated for fruquintinib.
For Part A, the effect of itraconazole based on the PK parameters of fruquintinib was evaluated using a linear mixed‐effect model with treatment (ie, fruquintinib with itraconazole [test] and fruquintinib alone [reference]) as fixed effects and subject as a random effect. A similar inferential analysis was performed for Part B, but fruquintinib with rifampin was the test group. […]

[3] = Part A: PK of single-dose fruquintinib alone and with itraconazole (CYP3A inhibition); assay type: in vivo, human; conditions: for MPR AUC0‐inf (metabolite‐to‐parent ratio) / MPR AUC0‐t (metabolite‐to‐parent ratio) / MPR Cmax (metabolite‐to‐parent ratio): M11 to fruquintinib; for MPR AUC0‐inf (metabolite‐to‐parent ratio) / MPR AUC0‐t (metabolite‐to‐parent ratio) / MPR Cmax (metabolite‐to‐parent ratio) / Cmax / Tmax / half-life / AUC: Part A; for MPR AUC0‐inf (metabolite‐to‐parent ratio) / MPR AUC0‐t (metabolite‐to‐parent ratio) / MPR Cmax (metabolite‐to‐parent ratio) / Cmax / half-life / AUC: arithmetic mean (SD); for Cmax / Tmax / half-life / AUC: both sexes, human, oral, metabolite M11 in plasma; for Cmax: read-out: Cmax; for Tmax: median (minimum‐maximum); for half-life / AUC: plasma
Excerpt: as §1
In Part A, subjects were administered fruquintinib alone in Treatment Period 1 and in combination with itraconazole in Treatment Period 2. Study Day 1 was considered the start of Treatment Period 1, and Study Day 15 was considered the start of Treatment Period 2. On Study Day 1, subjects received a single dose of fruquintinib 5 mg by mouth under fasted conditions (subjects fasted for at least 10 hours before fruquintinib dosing and 4 hours after), and on Study Day 19 subjects received a second single dose of fruquintinib 5 mg by mouth under fasted conditions, alongside itraconazole. On Study Day 15, subjects began a regimen of itraconazole 200 mg by mouth twice a day, followed by once daily dosing on Study Days 16‐25. A dose of 200 mg was selected, with a loading dose as part of a 5‐day lead‐in (twice daily for 1 day, once daily for 4 days) to achieve appropriate inhibition of CYP3A before dosing with fruquintinib.[10] Once‐daily dosing of itraconazole for an additional 5 days throughout the fruquintinib PK sampling period was continued to maintain CYP3A inhibition.[11]
As itraconazole oral bioavailability is maximal when the capsules are taken immediately after a full meal,[12] it was administered under fed conditions except when coadministered with fruquintinib on Study Day 19. Itraconazole doses were administered 30 minutes after the start of breakfast on Study Days 15‐18 and Study Days 20‐25. On Study Day 19, subjects received both treatments under fasted conditions, and itraconazole was administered 1 hour before administration of a single dose of fruquintinib 5 mg by mouth. Subjects were discharged after completion of EOS procedures on Study Day 26 or at early withdrawal.
as §2
PK parameters were determined by noncompartmental analysis and included maximum plasma concentration (Cmax); time to reach Cmax (tmax); area under the plasma concentration‐time curve (AUC) from time 0 to the time of the last measurable concentration (AUC0‐t); AUC from time 0 to infinity (AUC0‐inf); half‐life (t1/2); and the metabolite‐to‐parent ratios for Cmax, AUC0‐t, and AUC0‐inf. Apparent oral clearance and volume of distribution were also estimated for fruquintinib. […]

[4] = fruquintinib 5 mg + rifampin 600 mg, n = 13
[5] = fruquintinib alone 5 mg, n = 13
[6] = fruquintinib alone 5 mg, n = 14
[7] = fruquintinib 5 mg + itraconazole 200 mg, n = 13
[8] = fruquintinib 5 mg + itraconazole 200 mg, n = 14
[9] = coadministration of itraconazole

COc1cc2ncnc(Oc3ccc4c(C(N)=O)c(C)oc4c3)c2cc1OC [M11]
share of total radioactivity exposure in plasma [1]: approximately 17%
MPR AUC0‐inf (metabolite‐to‐parent ratio) [2, 4]: 1.13 (0.269)
MPR AUC0‐t (metabolite‐to‐parent ratio) [2, 4]: 1.12 (0.266)
MPR Cmax (metabolite‐to‐parent ratio) [2, 4]: 0.312 (0.0975)
MPR AUC0‐inf (metabolite‐to‐parent ratio) [2, 5]: 0.379 (0.0944)
MPR AUC0‐t (metabolite‐to‐parent ratio) [2, 5]: 0.295 (0.0848)
MPR Cmax (metabolite‐to‐parent ratio) [2, 6]: 0.117 (0.0462)
Cmax ([2]; both sexes, human, oral, fruquintinib 5 mg + rifampin 600 mg, n = 13): 31.1 ng/mL
Cmax ([2]; both sexes, human, oral, fruquintinib alone 5 mg, n = 14): 13.7 ng/mL
half-life ([2]; both sexes, human, plasma, oral, 5 mg, fruquintinib alone 5 mg, n = 13): 71.8 h
AUC ([2]; both sexes, human, plasma, oral, 5 mg, fruquintinib alone 5 mg, n = 13, read-out: AUC0‐inf): 2160 ng·h/mL
AUC ([2]; both sexes, human, plasma, oral, 5 mg, fruquintinib alone 5 mg, n = 13, read-out: AUC0‐t): 1610 ng·h/mL
Tmax ([2]; both sexes, human, plasma, oral, 5 mg, fruquintinib alone 5 mg, n = 14, read-out: tmax): 48 h
half-life ([2]; both sexes, human, plasma, oral, fruquintinib 5 mg + rifampin 600 mg, n = 13): 25.1 h
AUC ([2]; both sexes, human, plasma, oral, fruquintinib 5 mg + rifampin 600 mg, n = 13, read-out: AUC0‐inf): 2200 ng·h/mL
AUC ([2]; both sexes, human, plasma, oral, fruquintinib 5 mg + rifampin 600 mg, n = 13, read-out: AUC0‐t): 2130 ng·h/mL
Tmax ([2]; both sexes, human, plasma, oral, fruquintinib 5 mg + rifampin 600 mg, n = 13, read-out: tmax): 23 h
increase of M11 Cmax ([2]; coadministration of fruquintinib with rifampin versus fruquintinib alone): 2.3 fold
Tmax [2, 4]: 22.9 (22.9–46.9) hour
MPR AUC0‐inf (metabolite‐to‐parent ratio) [3, 7]: 0.177 (0.0371)
MPR AUC0‐t (metabolite‐to‐parent ratio) [3, 8]: 0.141 (0.0301)
MPR Cmax (metabolite‐to‐parent ratio) [3, 8]: 0.0579 (0.0155)
MPR AUC0‐inf (metabolite‐to‐parent ratio) ([3]; fruquintinib alone 5 mg, n = 12): 0.336 (0.0766)
MPR AUC0‐t (metabolite‐to‐parent ratio) [3, 6]: 0.291 (0.0745)
MPR Cmax (metabolite‐to‐parent ratio) [3, 6]: 0.121 (0.0358)
Cmax [3, 8]: 6.7 ng/mL
Tmax [3, 8]: 47.9 h
Cmax [3, 6]: 15.2 ng/mL
Tmax [3, 6]: 72 h
half-life ([3]; 5 mg, fruquintinib alone 5 mg, n = 12): 58.6 h
AUC ([3]; 5 mg, fruquintinib alone 5 mg, n = 12, read-out: AUC0‐inf): 2000 ng·h/mL
AUC ([3]; 5 mg, fruquintinib alone 5 mg, n = 14, read-out: AUC0‐t): 1580 ng·h/mL
half-life [3, 7]: 70.5 h
AUC ([3]; fruquintinib 5 mg + itraconazole 200 mg, n = 13, read-out: AUC0‐inf): 1100 ng·h/mL
AUC ([3]; fruquintinib 5 mg + itraconazole 200 mg, n = 14, read-out: AUC0‐t): 816 ng·h/mL
decrease of M11 AUC0‐inf [3, 9]: 44%
decrease of M11 AUC0‐t [3, 9]: 48%
decrease of M11 Cmax [3, 9]: 55%
